In ChEMBL document CHEMBL1153101, “Hit to lead studies on (hetero)arylpyrimidines--agonists of the canonical Wnt-beta-catenin cellular messaging system” (Bioorg Med Chem Lett, 2010):
In brackets after ≈: the same amount, converted by molar mass. Activity calls are given as the source filed them. The calls are words filed in the database; no cut-off is given here.

Key:
[1] = Activation of Wnt-3a/Dkk-1 expressed in human U2OS cells by TCF-luciferase assay; type: cell-based
U2OS = test: Activation of Wnt-3a/Dkk-1 expressed in human U2OS cells at 20 uM by TCF-luciferase assay relative to control; type: cell-based
Mus musculus [2] = test: Osteogenic activity in wild type C57BL/6 mouse calvaria in vivo assessed as increase in mineral apposition rate at 0.03 mg/kg/day by histomorphometry measurement
Mus musculus [3] = test: Osteogenic activity in wild type C57BL/6 mouse calvaria in vivo assessed as non phosphorylated beta-catenin at 0.3 mg/kg/day by immunohistochemistry
Mus musculus [4] = test: Osteogenic activity in wild type C57BL/6 mouse calvaria in vivo assessed as increase in mineral apposition rate at 0.1 mg/kg/day by histomorphometry measurement
Mus musculus [5] = test: Osteogenic activity in wild type C57BL/6 mouse calvaria in vivo assessed as non phosphorylated beta-catenin at 1 mg/kg/day by immunohistochemistry
[6] = Inhibition of Wnt-3a/Dkk-1-mediated [32P]GSk3beta phosphorylation in human U2OS cells at 20 uM by TCF-luciferase assay relative to control; type: cell-based
[7] = Aqueous solubility of the compound; type: physicochemical
[8] = Permeability by PAMPA; type: ADME; settings: read-out: permeability
[9] = Metabolic stability in rat liver microsomes; type: ADME, Microsome

| SMILES | EC50 [1] [µM] | fold change (FC) (U2OS) | further results |
| --- | --- | --- | --- |
| c1cncc(-c2ccnc(NCCc3c[nH]cn3)n2)c1 | 28.8 | 3.1 | – |
| NC(=O)Cn1cnc(C[C@@H](CO)Nc2nccc(-c3ccc4ccccc4c3)n2)c1 | – | 3.9 | – |
| c1cc(-c2ccnc(NCCCn3ccnc3)n2)ccn1 | 4.2 | 2.9 | Activity (Mus musculus [2]): Active; Activity (Mus musculus [3]): Active; Activity (Mus musculus [4]): Active; Activity (Mus musculus [5]): Active; IC50 [6]: 51 µM |
| OC[C@H](Cc1c[nH]cn1)Nc1nccc(-c2ccc3ccccc3c2)n1 | 6.8 | 4.9 | Activity (Mus musculus [2]): Active; Activity (Mus musculus [4]): Active; solubility [7]: 65 µg/mL (≈ 188 µM); Papp [8]: 0.13 ×10⁻⁶ cm/s; half-life [9]: ≥ 80 min |
| c1cc(CCNc2nccc(-c3ccncc3)n2)ccn1 | 6.8 | 4.3 | – |
| N#CCCn1cnc(C[C@@H](CO)Nc2nccc(-c3ccc4ccccc4c3)n2)c1 | – | 5.5 | – |
| OC[C@H](Cc1cn(Cc2cc(F)cc(F)c2)cn1)Nc1nccc(-c2cc3ccccc3s2)n1 | 16 | 1.7 | – |
| OC[C@H](Cc1cn(Cc2cc(F)cc(F)c2)cn1)Nc1nccc(-c2ccc3ccccc3c2)n1 | – | 2 | – |
| C#CCOC[C@H](Cc1c[nH]cn1)Nc1nccc(-c2cc3ccccc3s2)n1 | – | 3.5 | – |
| N#CCCn1cnc(C[C@@H](CO)Nc2nccc(-c3cc4ccccc4s3)n2)c1 | – | 4.1 | – |
| Cc1[nH]c2ccc(O)cc2c1CCNc1nccc(-c2cccnc2)n1 | 12.2 | 5.1 | – |
| C#CCn1cnc(C[C@@H](CO)Nc2nccc(-c3cc4ccccc4s3)n2)c1 | 14.6 | 3 | – |

The remaining molecules from weak to strong by EC50 [1], led by results:

| EC50 [1] [µM] | SMILES | fold change (FC) (U2OS) | further results |
| --- | --- | --- | --- |
| 46.3 | O=[N+]([O-])c1cccc(-c2ccnc(NCCCn3ccnc3)n2)c1 | 3.6 | – |
| 29.6 | Cc1cc(C)n(CCCNc2nccc(-c3ccncc3)n2)n1 | 2.1 | – |
| 20.8 | C=C1CCCCC1OC[C@H](Cc1c[nH]cn1)Nc1nccc(-c2ccc3ccccc3c2)n1 (stereo partly drawn) | 2.2 | – |
| 20.2 | c1cncc(-c2ccnc(NCCc3ccncc3)n2)c1 | 3.4 | – |
| 14.4 | CCOC[C@H](Cc1c[nH]cn1)Nc1nccc(-c2ccc3ccccc3c2)n1 | 1.9 | – |
| 12.1 | c1ccc2cc(-c3ccnc(NCCc4c[nH]cn4)n3)ccc2c1 | 1.1 | – |
| 10.9 | Fc1c(COC[C@H](Cc2c[nH]cn2)Nc2nccc(-c3ccc4ccccc4c3)n2)cccc1C(F)(F)F | 1.6 | – |
| 8.8 | c1cncc(-c2ccnc(NCCCn3ccnc3)n2)c1 | 4.7 | – |
| 4.6 | c1cncc(CCNc2nccc(-c3ccncc3)n2)c1 | 2.8 | – |
| 4.1 | c1cncc(-c2ccnc(NCCc3c[nH]c4ccccc34)n2)c1 | 10 | – |
| 3.3 | c1ccc2sc(-c3ccnc(NCCc4c[nH]cn4)n3)cc2c1 | 3.7 | – |
| 2.7 | c1ccc2c(CCNc3nccc(-c4ccncc4)n3)c[nH]c2c1 | 7.5 | – |
